Reference: publication PMC9604868, “Evaluation of Possible Antioxidant, Anti-Hyperglycaemic, Anti-Alzheimer and Anti-Inflammatory Effects of Teucrium polium Aerial Parts (Lamiaceae)” (Life, 2022)

How the values were obtained:
[1] = DPPH radical scavenging assay; conditions: means ± SD (n = 3)
Protocol: (§1) The antioxidant activity of T. polium L. hydroalcoholic extract was achieved using several analytical tests distinguished by their mechanism of reaction 2-diphenyl-1-picrylhydrazyl (DPPH), β-carotene and galvinoxyl radical (GOR). The reaction was initiated by mixing 0.5 mL of hydroalcoholic extract with 1 mL of DPPH (0.2 mM), β-carotene (0.5 mM) and GOR (0.1 mM) using the protocols described in references. The mixtures were left in the dark at room temperature for approximately 30 min; after that, the absorbance was measured at λmax: […], 490 and 428 nm for the mentioned tests, respectively, against a blank using a UV-vis spectrophotometer apparatus (Shimadzu UV-2450, Japan). The inhibition percentage was calculated as follows: I% = ((A0 − A1)/A0) × 100, where A0 is the absorbance of DPPH, β-carotene and GOR solutions without extracts, while A1 were the absorbance of the sample. The activity results for all tests were expressed as IC50 (half maximal inhibitory concentration) values, which have been calculated (using Microsoft Excel 2016) from an antiradical linear graph formed by the X axis, which represented extract concentration, and the Y axis, which represented their relative inhibition percentage. In addition, the antioxidant activity results were compared with three standards, BHA, BHT and vitamin, as represented in Table 1.

β-carotene assay = conditions: means ± SD (n = 3)
Protocol: as §1

[2] = test system: carrageenan-induced paw edema; experiment: Carrageenan-induced hind paw edema; conditions: mice, gavage, extract 10% 0.5 mL or diclofenac 10 mg/kg; for % Oedema Reduction: versus control
rat renal medulla COX = test system: rat renal medulla COX; design: method as in PMID 33802084; conditions: cited from earlier work

COc1ccc(O)c(C(C)(C)C)c1 [BHA, butylated hydroxyanisole]
DPPH IC50 [1]: 6.14 ± 0.41 mg/L | β Carotene IC50 (β-carotene assay): 1.05 ± 0.03 mg/L

Cc1cc(C(C)(C)C)c(O)c(C(C)(C)C)c1 [BHT, 2,6-ditert-butyl-4-methylphenol]
DPPH IC50 [1]: 12.99 ± 0.41 mg/L | β Carotene IC50 (β-carotene assay): 0.91 ± 0.01 mg/L

O=C(O)Cc1ccccc1Nc1c(Cl)cccc1Cl [Diclofenac sodium]
% Oedema ([2]; 4 h after carrageenan): 20.42% | Average Paw Weight (g) Left ([2]; carrageenan-injected paw, 4 h): 0.171 ± 0.009 g | Average Paw Weight (g) Right ([2]; uninjected paw, 4 h): 0.142 ± 0.001 g | % Oedema Reduction ([2]; 4 h after carrageenan): 52.97% | % Oedema Reduction ([2]; 4 h after carrageenan, listed as diclofenac sodium): 52.97%

O=c1cc(-c2ccc(O)c(O)c2)oc2cc(O)cc(O)c12 [Luteolin (7), luteolin]
IC50 (rat renal medulla COX): 100 to 130 µM

Cc1c(C)c2c(c(C)c1O)CC[C@@](C)(CCC[C@H](C)CCC[C@H](C)CCCC(C)C)O2 [Vitamin E, α-Tocopherol]
DPPH IC50 [1]: 15.81 ± 0.54 mg/L
